Earlier results, collected in patent publication US6979468B1, “Oral composition and method for the treatment of inflammatory cutaneous disorders” (Sirius Laboratories, priority 2002, dated 2005).

Tested on: acne vulgaris
Conditions: administered orally, 100–600 milligrams per day in divided doses taken 2 to 4 times per day

NC(=O)c1cccnc1 [nicotinamide]
effect on acne lesions: decrease inflammatory lesions such as papules, pustules, and cysts, but not comedones
